The term IC50 denotes the point on the concentration scale where inhibition reaches its midpoint. Low readings indicate greater potency in that assay, high ones weaker potency in that assay.

From article PMC9200803, “Design, synthesis, and biological evaluation of tetrahydroquinolinones and tetrahydroquinolines with anticancer activity” (Scientific Reports, 2022) come the findings set out here.

Common to all, as to type: cell-based, human
In series [1] the test system is HCT-116 cells. Kind of series: MTT cell viability assay, HCT-116. The note with it: for IC50: MTT, 72 h, IC50 ± SD. Here is the method:
(§1) To evaluate the effects of the newly synthesized tetrahydroquinolin-2(1H)-one derivatives on cell viability, we treated human colon cancer cells HCT-116, human breast cancer cells MCF-7, and human non-small cell lung cancer cells A-549 with different concentrations of the compounds for 72 h. After incubation, the MTT (3-(4,5-dimethylthiazol-2-yl)-2,5-diphenyltetrazolium bromide) assay was performed and the cytotoxic potency of compounds (expressed in IC50) on the cells was determined in comparison to control cells treated with 1% of dimethyl sulfoxide (DMSO) (Table 1). […] We also compared the activity of 20d and 19b to the reference control drug Cisplatin, which is widely used in chemotherapy.
(§2) A-549 (CCL-185) and MCF-7 ([…]) cells were cultured in RPMI-1640 medium, while HCT-116 (CVCL-427), (hMLH1)-deficient (MMR^–) and hMLH1-proficient (MMR^+) RKO cells were cultured in McCoy’s 5A medium. The culture media were supplemented with 10% fetal bovine serum, 2 mM L-glutamine, and antibiotics (penicillin 62.6 µg/ml and streptomycin 40 µg/ml). Cultivation of cell lines was carried out at 37 °C under a humidified atmosphere containing 5% CO2, and the cultures were routinely screened for Mycoplasma contamination. A-549, MCF-7, and HCT-116 cells were obtained from American Type Culture Collection (ATCC), while RKO colon carcinoma cells were a kind gift of Dr Timothy Kinsella (Brown University, USA).
(§3) The viability of cells was determined in response to the newly synthesized compounds using the MTT (Sigma-Aldrich) assay. Briefly, cells were seeded into 96-well plates and allowed to attach overnight. Then, cells were exposed to various concentrations of compounds for 24, 48 or 72 h. Negative controls were treated with the same amount of DMSO solvent (1%). After treatment, the MTT solution (0.4 mg/ml) was added to each well and allowed to react with cells for 2–3 h at 37 °C. Next, the medium was removed, the formazan product formed was dissolved in 100 μl of DMSO, and the absorbance was determined at 540 nm using an ASYS UVM340 microplate reader (Biochrom Ltd.). The IC50 value, which represents the concentration of the compound required to inhibit cell growth by 50% compared to vehicle, was calculated using GraphPad Prism 8 software based on the curves plotting survival against dose averaged from at least three independent experiments.
A general note: Formazan colour is commonly taken as a measure of viable cells.

The next series has as its system MCF-7 cells. Kind of series: MTT cell viability assay, MCF-7. To be noted: Homo sapiens, MCF7, 72 h, IC50 ± SD. How it is done: as §1, §2, §3
The subject of series [2] is HCT-116 cells. The experiment in a line: Cell cycle distribution analysis by flow cytometry (PI staining). The note with it: HCT-116, 24 to 72 h, vs vehicle. Here is the method: Based on their antiproliferative activity, 20d and 19b were evaluated for their effect on cell cycle phase distribution and DNA content by flow cytometry.
HCT-116 and A-549 cells were seeded into culture plates and allowed to attach overnight. Then, cells were incubated with the investigated compounds for the indicated time points. After incubation, the harvested cells were fixed with ice-cold 75% ethanol and stored overnight at − 20 °C. Next, cells were rehydrated with PBS in ice for 15 min and washed twice in PBS. Finally, cells were stained with […] propidium iodide (PI) and […] RNase A in PBS for 30 min at room temperature. Cell cycle distribution was determined using a Guava easyCyte 8 flow cytometer (Merck Millipore) and FlowJo v10 software.
A general note: Flow cytometry measures light scatter and fluorescence of single cells or particles in a stream.

The subject of series [3] is HCT-116 cells. The experiment in a line: Acridine orange staining of acidic vesicular organelles. To be noted: HCT-116, p < 0.01. The text has this:
Then, to elucidate whether compound 20d can act as an autophagy modulator, we stained cells with acridine orange (AO), a lysotropic agent. AO is a weak base that can permeate the cell membrane in an uncharged state emitting green fluorescence. After protonation, AO forms aggregates in acidic vesicular organelles (AVOs), emitting red fluorescence. […] One of the hallmarks of autophagy is the conjugation of LC3-I with phosphatidylethanolamine, followed by its conversion to autophagosome-associated form LC3-II[39]. Taking this into account, we evaluated the expression of LC3I/II in colon cancer cells after exposure to 20d. Furthermore, we studied the expression of LAMP-1, a well-known lysosomal marker. […] This observation was also confirmed by increased punctate cytosolic LC3 fluorescence intensity when HCT-116 cells were assessed by confocal microscopy (Fig. 8e,g). […] It has been shown that multiple signaling pathways are involved in the modulation of autophagy, including the PI3K/AKT/mTOR pathway, which is especially involved in the stage of autophagosome elongation[41],[42]. In this study, we investigated whether 20d-induced autophagy in HCT-116 cells is related to PI3K/AKT/mTOR signaling. […] This proves that 20d induced autophagy cell death in HCT-116 cells by interfering with the PI3K/AKT/mTOR signaling pathway.

The test system of another series is A-549 cells. Kind of series: ROS level, H2DCFDA probe, flow cytometry, A-549. To be noted: A-549, IC50 concentration, 1-24 h.
The subject of series [4] is hMLH1-proficient RKO cells. The experiment in a line: ROS level, H2DCFDA probe, MMR-proficient RKO. To be noted: 1 h of exposure, vs control. Here is the method:
(§4) Then, we confirmed whether the induction of cellular stress by 20d is related to MMR deficiency by exposing MMR-deficient and MMR-proficient cells to the compound for different times and measuring the ROS levels. Our results indicated a greater increase in the level of ROS after 1 h of exposure in 20d-treated MMR-deficient cells than in MMR-proficient cells (54.71 ± 2.70% and 22.27 ± 1.7%, respectively), in comparison to control (Fig. 7).
(§5) The […] ROS levels were determined using an H2DCFDA (2′,7′-dichlorodihydrofluorescein diacetate) probe (Thermo Fisher) following the manufacturer’s protocol. […] DMSO (1%, Merck) and 250 μM H2O2 were used as a negative and positive control, respectively. NAC (500 μM, Sigma-Aldrich) was used as an ROS scavenger to confirm the ROS activity. After treatment with 20d and 19b, cells were incubated with H2DCFDA at 37 °C for 30 min. Subsequently, cells were harvested by trypsinization, rinsed with PBS, and stained with 7-AAD (Thermo Fisher). Finally, the stained cells were analyzed by flow cytometry using a Guava easyCyte 8 cell sorter (Merck Millipore) and FlowJo v10 software.

Series [5] deals with hMLH1-deficient RKO cells. The experiment in a line: ROS level, H2DCFDA probe, MMR-deficient RKO. The note with it: 1 h of exposure, vs control. How it is done: as §4, §5

Some results are limits rather than exact numbers.

Take `O=C(Nc1cccc(F)c1)OC1CCCc2c(-c3ccccc3)cc(=O)[nH]c21` (stereo not shown) [Compound 20d, (2-oxo-4-phenyl-5,6,7,8-tetrahydroquinolin-8-yl) N-(3-fluorophenyl)carbamate]: the “cytotoxic effect after 24 h and 48 h exposure” value in the series on HCT-116 cells [1] (HCT-116, 10 and 20 µM) is given as “slight cytotoxic effect”. In addition, the concentration for half-maximal inhibition (IC50) with HCT-116 cells [1] (Homo sapiens, HCT-116, 72 h) was roughly 13 µM; in the series on HCT-116 cells [1], 12 ± 0.57 µM; with MCF-7 cells, greater than 50 µM. Besides, the “increase in the number of cells in the G0/G1 phase” value with HCT-116 cells [2] is given as less than 14%. For the same molecule, the “number of cells in the S-phase” value with HCT-116 cells [2] is given as “substantial decrease”. Besides, in the series with HCT-116 cells [3], the “increase in red fluorescence (AVOs) in comparison to vehicle” value is recorded as 1.9 fold. In addition, in the series on A-549 cells, the “increase in ROS level compared to vehicle” value is reported as roughly 5%. Besides, the “increase in the level of ROS” value is 22.27 ± 1.7% in series [4] and 54.71 ± 2.70% in series [5].
